Experimental data as given in patent US9834525B2, “Inhibitors of paxillin function and related compositions and methods” (UNIVERSITY OF TENNESSEE RESEARCH FOUNDATION, priority 2015, dated 2017).
“Also recorded” adds a separate entry of the source.

What was measured:
CYP3A4 = target: T1, CYP3A4 (Homo sapiens, UniProt P08684); test: CYP-450 interaction study in pooled human liver microsomes, CYP3A4; assay type: in vitro ADME; conditions: 1 μM
T1 construct: from tissue; host or cells: pooled human liver microsomes
T1 sequence (P08684 whole entry): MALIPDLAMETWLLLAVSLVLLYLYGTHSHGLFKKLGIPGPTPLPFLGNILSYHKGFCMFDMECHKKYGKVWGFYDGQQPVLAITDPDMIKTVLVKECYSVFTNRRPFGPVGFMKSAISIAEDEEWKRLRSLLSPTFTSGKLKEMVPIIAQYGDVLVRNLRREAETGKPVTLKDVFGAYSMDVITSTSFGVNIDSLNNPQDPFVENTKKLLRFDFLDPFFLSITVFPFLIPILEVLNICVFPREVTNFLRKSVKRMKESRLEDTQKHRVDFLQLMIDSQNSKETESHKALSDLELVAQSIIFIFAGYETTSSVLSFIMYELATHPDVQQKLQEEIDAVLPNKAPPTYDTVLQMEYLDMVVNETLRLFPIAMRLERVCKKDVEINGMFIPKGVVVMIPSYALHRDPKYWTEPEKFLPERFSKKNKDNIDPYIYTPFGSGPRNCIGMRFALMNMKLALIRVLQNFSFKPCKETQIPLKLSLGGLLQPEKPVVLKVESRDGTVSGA
Protocol: CYP-450 interaction studies were conducted in pooled human liver microsomes (FIG. 8). CYP-450 inhibition (%) by compound (II-4) (1 μM) was compared to control inhibitors (1 μM) for the most common CYP-450 isoforms, CYP3A4, CYP2C9, CYP2D6, CYP2C19, and CYP1A2.
CYP-450 interaction studies were conducted in pooled human liver microsomes (FIG. 24). CYP-450 inhibition (%) by compound (II-4) (1 μM) was compared to control inhibitors (1 μM) for the most common CYP-450 isoforms, 3A4, 2C9, 2D6, 2C19, and 1A2.

Mel 270 primary-UM cells = test: CFSE cellular proliferation, Mel 270; assay type: cell-based, human; conditions: 96 hrs culture, 1 μM for the last 24 hrs
Protocol: Harvested cells were resuspended at a concentration of 1.0×10^6 cells/mL in warm PBS/1% FBS. Cells were labeled with […] (Invitrogen) for 5 minutes at 37° C. then quenched on cold growth media (final volume 20 mL) for 10 minutes, twice. Cultured unlabeled cells were used as controls.
To test the hypothesis that inhibition of paxillin will reduce cellular proliferation UM cell lines were labeled with carboxyfluorescein succunimidyl ester (CFSE), a cell tracking dye, and cultured for 96 hrs. A group of cells received treatment with compound (II-4) for the last 24 hours. Maximum CFSE fluorescence was controlled using labeled cells prior culture −0 hr. Negative control was established using unlabeled cells cultured in parallel. Histograms in FIG. 15D show 96 hrs cultured cells divided with a 1-log shift or reduction in CFSE intensity. […] Cell proliferation was not affected in the 92.1 cell line. […]
FIG. 15: The paxillin inhibitor Compound (II-4) selectively affects cellular proliferation of primary UM cells that become metastatic. […] Unlabeled cells were used to control fluorescence. […] B. Quantitation of experiment +/−SD including primary UM that becomes metastatic (Mel 270), metastatic (OMM 2.1) and primary (92.1) UM cells. *P=0.0007 and **P=0.0005. […] Quantitation of VLA-4 protein levels +/−SD from n=3. […]

[1] = tested on: paxillin (pY118) in OMM 2.5 cells; test: Western blot of pY118 and total paxillin in HGF-treated metastatic UM cells; assay type: cell-based, human; conditions: HGF-treated OMM 2.5 cells, 4 hrs
Protocol: REC, Mel 270, OMM 2.5 under Hepatocyte Growth Factor (HGF) or Vascular Endothelial Growth Factor (VEGF) stimulation conditions: Cell lysates were collected in RIPA lysis buffer (50 mM Tris-HCl, pH 7.4, 150 mM NaCl, 2 mM EDTA, 1% Nonidet P-40, 0.1% SDS) with protease 1× inhibitor cocktail (Roche; Indianapolis, Ind.). Lysates were kept on ice and centrifuged at 10,000×g×10 minutes and total protein was measured using the BCA assay (Pierce, Rockford, Ill.). Protein samples were mixed with 4×LDS loading buffer with 2.5% 2-mercaptoethanol (Sigma-Aldrich), heated to 70° C. for 10 minutes, and loaded on NuPAGE 4-12% Bis-Tris gel (Invitrogen, Carlsbad, Calif.). […] Dual-channel infrared scan and quantitation of immunoblots were conducted using the ODYSSEY Sa infrared imaging system with Image Studio (Ver. 3.1.4) (LI-COR).
Immune studies of the α4β1 integrins (VCAM-1 and VLA-4) show high affinity α4 integrins may initiate signaling cascades through paxillin that regulate leukocytes migration to inflammation sites. […] The levels of total paxillin and pY118 were measured after activation of metastatic-UM (OMM 2.5) cells with Hepatocyte Growth Factor (HGF) to address in vitro if disruption of α4-downstream signaling through paxillin can affect α4-downstream signaling. […]

[2] = tested on: retinal endothelial cells (REC); test: REC attachment assay; assay type: cell-based, human; conditions: increasing concentrations (100 nM to 1 μM), six hours
Excerpt: Adhesive interactions with extracellular matrix proteins rely on focal adhesion proteins engaging with integrins to strengthen and maintain cell contacts. In the transwell migration assay system, initial cell-attachment to the porous membrane was relied upon in order to obtain a measure of cells that have migrated through to the underside of the well. Since compound (II-4) was in direct contact with cells prior to being seeded onto the transwell membranes, the potential of compound (II-4) to impede the attachment of RECs to the membranes was investigated. […] However, investigation of integrin-mediated signaling may be of interest to further evaluate and characterize compound (II-4)'s potential role in disrupting cross-talk between growth-factor and integrin-mediated signaling during pathological retinal angiogenesis.
FIG. 19: REC attachment assay. Increasing concentrations of compound (II-4) with suspended RECs were seeded to 96-wells to investigate inhibition of REC-adherence to attachment-factor surfaces. […] (P>0.05; n=8).

`COc1cc(C2OC(=O)Nc3c2ccc2ccccc32)cc(OC)c1OC` (stereo not shown) [compound II-4] was tested, and the “CYP-450 inhibition, CYP3A4” value (CYP3A4) was “lack of significant inhibition; also recorded: lacks significant inhibition”, the “cell proliferation (CFSE)” value (Mel 270 primary-UM cells) was “caused a reduction in cell proliferation” and the “ratio of pY118 paxillin to total paxillin (pPax:Pax)” value [1] was “dramatically decreased”. For the same molecule, the “attachment of RECs to attachment-factor coated wells” value [2] was “did not impede the attachment”.
